Columns and labels:
[1] = target: recombinant human LMPTP-A (Homo sapiens (Human), UniProt P24666); experiment: isothermal calorimetry (ITC) binding
Protocol: ML400 analog G53 (Table A) binds to LMPTP. ITC was performed using recombinant human LMPTP-A and a derivative of Compound D1, G53. Kd=0.9 microM.

[2] = target: LMPTP-A (Low Molecular Weight Protein Tyrosine Phosphatase-A) enzyme (Homo sapiens (Human), UniProt P24666); experiment: LMPTP primary screening / LMPTP (OMFP) enzyme inhibition assay, fluorescence intensity; assay type: biochemical; conditions: LMPTP-A, OMFP substrate, method of Example 2; read-out: IC50
In short: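 0.625 nM LMPTP-A with 400 μM OMFP substrate in 50 mM Bis-Tris pH 6.0, 1 mM DTT, 0.01% Triton X-100, […]. Compounds at 20 μM final. Incubated 50 min at room temperature in the dark; fluorescence intensity read.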

Sequence of recombinant human LMPTP-A (P24666 whole entry): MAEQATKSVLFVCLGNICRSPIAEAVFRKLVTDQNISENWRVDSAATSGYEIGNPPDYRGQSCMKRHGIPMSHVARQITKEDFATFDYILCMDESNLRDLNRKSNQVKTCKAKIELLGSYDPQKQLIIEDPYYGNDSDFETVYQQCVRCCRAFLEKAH
Sequence of LMPTP-A (Low Molecular Weight Protein Tyrosine Phosphatase-A) enzyme (P24666 whole entry): as above

Kd [1]: 900 nM
IC50 [2]: 801 to 5000 nM
SMILES: COc1ccc(-c2cc(Nc3cccc(CC4CCNCC4)c3)c3ccccc3n2)cc1 [Compound G53, [2-(4-methoxyphenyl)(4-quinolyl)][3-(4-piperidylmethyl)phenyl]amine]
